Data: patent US7118759B2 (priority 2001, dated 2006)
Where two headings read alike, the source gives them in different places.

Assays:
Assay type in all cases: cell-based, Staphylococcus aureus
S. aureus (MN8) = conditions: for Reduction of Toxin (%): vs methanol control
S. aureus FRI-1187 = system: S. aureus FRI-1187
S. aureus FRI-1169 = system: S. aureus FRI-1169

| SMILES | TSST-1 produced when compared to the control (S. aureus (MN8)) | ELISA: TSST-1 ng/OD unit (S. aureus (MN8); 2 μg/mL test compound, 24 hours) | Reduction of Toxin (%) (S. aureus (MN8); 2 μg/mL test compound) | TSST-1 produced when compared to the control (S. aureus FRI-1187) | ELISA: TSST-1 ng/OD unit (S. aureus FRI-1187; 0.5 ug/mL triclosan) | Reduction of Toxin (%) (S. aureus (MN8); 0.01 μg/mL test compound) | TSST-1 produced when compared to the control (S. aureus FRI-1169) | ELISA: TSST-1 ng/OD unit (S. aureus FRI-1169; 0.5 μg/mL triclosan) |
| --- | --- | --- | --- | --- | --- | --- | --- | --- |
| Oc1c(Cl)cc(Cl)c(Cl)c1Cc1c(O)c(Cl)cc(Cl)c1Cl [Hexachlorophene, hexachlorophene] | significantly less TSST-1 | 330 ng/OD unit | 68% | – | – | – | – | – |
| Oc1cc(Cl)ccc1Oc1ccc(Cl)cc1Cl [Triclosan, triclosan] | significantly less TSST-1 | – | – | less TSST-1 | 95 ng/OD unit | 88% | less TSST-1 | 40 ng/OD unit |
